In article PMC13099141, “Antibiotic potentiation and inhibition of cross-resistance in pathogens associated with cystic fibrosis” (eLife, 2026):

Experiments:
Experiment in all cases: nitrocefin hydrolysis, absorbance at […] nm, sonicated lysate
Format in all cases: biochemical
Conditions in all cases: 0.4 mM nitrocefin, 100 mM sodium phosphate pH 7.0, 25 °C; dsbA+ E. coli
[1] = target: T1, BEL-1 (Pseudomonas aeruginosa, UniProt Q3SAW3)
T1 construct: gene bla(BEL1); full-length class A beta-lactamase from plasmid pDM1-blaBEL-1 in E. coli MC1000, sonicated lysate; gene from clinical isolate

[2] = target: T2, SMB-1 (Serratia marcescens, UniProt G5ELM3)
T2 construct: full-length class B3 metallo-beta-lactamase, synthetic gene in pDM1, E. coli MC1000 lysate

[3] = target: T3, POM-1 (Metapseudomonas otitidis, UniProt E6Y3G9)
T3 construct: gene pom1; full-length class B3 metallo-beta-lactamase from pDM1-blaPOM-1 in E. coli MC1000, lysate; gene from clinical isolate

[4] = target: T4, AIM-1 (Pseudomonas aeruginosa, UniProt B5DCA0)
T4 construct: gene blaAIM-1; full-length class B3 metallo-beta-lactamase from pDM1-blaAIM-1 in E. coli MC1000, lysate; gene from clinical isolate

[5] = target: T5, OXA-50 (Pseudomonas aeruginosa, UniProt G3XCV9)
T5 construct: gene PA5514; full-length class D beta-lactamase from pDM1-blaOXA-50 in E. coli MC1000, lysate; gene from clinical isolate

[6] = target: T6, CARB-2 (Pseudomonas aeruginosa, UniProt Q03170)
T6 construct: gene pse1; full-length class A carbenicillinase, synthetic gene in pDM1, E. coli MC1000 lysate
T6 sequence (Q03170 18-288): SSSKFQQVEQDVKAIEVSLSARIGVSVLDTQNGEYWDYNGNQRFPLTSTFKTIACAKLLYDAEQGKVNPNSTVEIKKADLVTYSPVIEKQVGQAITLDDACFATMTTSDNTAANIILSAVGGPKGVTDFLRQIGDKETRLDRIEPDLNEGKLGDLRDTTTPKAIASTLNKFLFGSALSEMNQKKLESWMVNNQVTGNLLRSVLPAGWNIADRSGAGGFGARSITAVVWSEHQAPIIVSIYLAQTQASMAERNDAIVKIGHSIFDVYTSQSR

T4 sequence (B5DCA0 entry or part of it): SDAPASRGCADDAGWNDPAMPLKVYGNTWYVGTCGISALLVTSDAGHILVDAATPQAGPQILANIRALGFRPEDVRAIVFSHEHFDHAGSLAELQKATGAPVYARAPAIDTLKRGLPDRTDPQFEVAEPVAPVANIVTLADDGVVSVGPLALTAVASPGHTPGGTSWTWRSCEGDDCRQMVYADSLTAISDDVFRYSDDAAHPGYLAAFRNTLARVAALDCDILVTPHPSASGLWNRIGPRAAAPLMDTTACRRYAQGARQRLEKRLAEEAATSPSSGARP
T1 sequence (Q3SAW3 entry or part of it): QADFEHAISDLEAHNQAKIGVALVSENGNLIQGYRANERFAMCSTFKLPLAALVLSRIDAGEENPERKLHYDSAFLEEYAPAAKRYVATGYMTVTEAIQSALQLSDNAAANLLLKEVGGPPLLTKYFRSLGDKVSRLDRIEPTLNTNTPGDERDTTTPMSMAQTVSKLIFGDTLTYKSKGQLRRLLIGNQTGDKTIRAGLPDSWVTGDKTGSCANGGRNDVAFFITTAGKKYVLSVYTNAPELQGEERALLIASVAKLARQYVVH
T5 sequence (G3XCV9 entry or part of it): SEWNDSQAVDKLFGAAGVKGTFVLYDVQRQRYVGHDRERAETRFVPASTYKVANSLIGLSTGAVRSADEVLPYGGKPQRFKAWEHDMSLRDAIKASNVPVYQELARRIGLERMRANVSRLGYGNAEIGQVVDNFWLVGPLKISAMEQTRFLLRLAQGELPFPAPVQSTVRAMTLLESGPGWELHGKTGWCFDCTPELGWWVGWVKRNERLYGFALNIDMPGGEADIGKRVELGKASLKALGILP
T2 sequence (G5ELM3 entry or part of it): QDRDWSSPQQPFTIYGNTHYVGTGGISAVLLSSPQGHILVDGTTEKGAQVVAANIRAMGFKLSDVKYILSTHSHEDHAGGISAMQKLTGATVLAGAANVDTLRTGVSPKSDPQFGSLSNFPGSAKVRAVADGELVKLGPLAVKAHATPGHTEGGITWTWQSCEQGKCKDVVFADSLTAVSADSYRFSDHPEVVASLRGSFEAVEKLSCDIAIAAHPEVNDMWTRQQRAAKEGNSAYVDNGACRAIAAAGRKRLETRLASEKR
T3 sequence (E6Y3G9 entry or part of it): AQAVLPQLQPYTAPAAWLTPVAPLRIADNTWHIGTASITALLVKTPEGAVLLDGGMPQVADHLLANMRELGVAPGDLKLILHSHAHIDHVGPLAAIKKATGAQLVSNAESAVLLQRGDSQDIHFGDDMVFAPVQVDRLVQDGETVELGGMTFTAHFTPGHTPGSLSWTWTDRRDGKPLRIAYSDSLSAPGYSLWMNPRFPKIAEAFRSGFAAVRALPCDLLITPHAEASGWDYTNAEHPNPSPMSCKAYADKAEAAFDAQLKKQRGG

## O=C(Cc1cccs1)N[C@@H]1C(=O)N2C(C(=O)O)=C(/C=C/c3ccc([N+](=O)[O-])cc3[N+](=O)[O-])CS[C@H]12 [nitrocefin]
[1]
  nitrocefin hydrolysis, absorbance at 490 nm, sonicated lysate: The hydrolysis of the chromogenic β-lactam nitrocefin by cysteine-containing β-lactamases is impaired
[2]
  nitrocefin hydrolysis, absorbance at 490 nm, sonicated lysate: The hydrolytic activities of both tested β-lactamases are significantly reduced in the absence of DsbA
[3]
  nitrocefin hydrolysis, absorbance at 490 nm, sonicated lysate: The hydrolytic activities of both tested β-lactamases are significantly reduced in the absence of DsbA
[4]
  nitrocefin hydrolysis, absorbance at 490 nm, sonicated lysate: The hydrolysis of the chromogenic β-lactam nitrocefin by cysteine-containing β-lactamases is impaired
[5]
  nitrocefin hydrolysis, absorbance at 490 nm, sonicated lysate: The hydrolysis of the chromogenic β-lactam nitrocefin by cysteine-containing β-lactamases is impaired
[6]
  nitrocefin hydrolysis, absorbance at 490 nm, sonicated lysate: The hydrolysis of the chromogenic β-lactam nitrocefin by cysteine-containing β-lactamases is impaired
